Laboratory results reported in paper PMC3424241, “The Octadecaneuropeptide ODN Protects Astrocytes against Hydrogen Peroxide-Induced Apoptosis via a PKA/MAPK-Dependent Mechanism” (PLoS ONE, 2012).

Experiments:
caspase-3 = assay: Caspase-3 activity, fluorometric Z-DEVD-Rhodamine 110; assay type: cell-based, rat; conditions: for effect of inhibitor on the inhibitory action of ODN on H2O2-induced caspase-3 activity: H89 20 µM, U0126 20 µM, U73122 1 µM, chelerythrine 1 µM, 30 min pre-incubation, 1 h 300 µM H2O2 with ODN 0.1 nM
Method: (§1) Secondary cultures of rat cortical astrocytes were prepared as previously described [64]with minor modifications. Briefly, cerebral hemispheres from newborn Wistar rats were collected in DMEM/F12 (2∶1; v/v) culture medium supplemented with 2 mM L-glutamine, 1‰ insulin, 5 mM HEPES, 0.4% glucose and 1% of the antibiotic-antimycotic solution. The tissues were dissociated mechanically with a syringe equipped with a 1-mm gauge needle, and filtered through a 100-µm sieve (Falcon, Franklin Lakes, NJ, USA). Dissociated cells were resuspended in culture medium supplemented with 10% FBS, plated in 175-cm^2 flasks (Greiner Bio-one GmbH, Frickenhausen, Germany) and incubated at 37°C in a 5% CO2/95% O2 atmosphere. When cultures were confluent, astrocytes were isolated by shaking overnight the flasks on an orbital agitator. Adhesive cells were detached by trypsination and preplated for 5 min to discard contaminating microglial cells. Then, the non-adhering astrocytes were harvested and plated on 35-mm hydrophilic surface Petri dishes at a density of 3×10^5 cells/ml. For measurement of cell survival, caspase-3 activity and mitochondrial activity, cells were plated in hydrophilic surface 24-well plates at a density of 8×10^4 cells/ml. The cells were incubated at 37°C in a humid atmosphere (5% CO2). After 5 days (DIV5), more than 99% of the cells were labeled with antibodies against glial fibrillary acidic protein [65]. All experiments were performed on 5- to 7-day-old secondary cultures.
At the end of the incubation with test substances, cultured astrocytes were washed twice with PBS at 37°C, resuspended in DMEM (100 µl) and treated with fluorometric caspase-3 Apo-1 assay system. In brief, 100 µl of the cell suspension was incubated with 100 µl of kit buffer and caspase substrate in 96-well plates. Caspase-3 activity was calculated from the slope of the fluorescence measured every 15 min for 3 h with excitation at 485 nm and emission at 530 nm, and expressed as a percentage of the control.

cultured rat astrocytes = assay: Cell survival after H2O2, FDA fluorescence; assay type: cell-based; conditions: for effect of inhibitor on dbcAMP-promoted astroglial cell survival: H89 20 µM or U0126 20 µM, 1 h 300 µM H2O2 with dbcAMP 1 mM; for effect of pathway inhibitor on the protective action of ODN: H89 20 µM, U0126 20 µM, U73122 10 µM, chelerythrine 0.1 µM; for protective effect of receptor ligand on H2O2-induced cell death: 30 min pre-incubation with ligand (OP 0.1 nM, [Ala15]ODN 0.1 nM, clonazepam 10 nM), then 1 h 300 µM H2O2
Method: as §1, with “Dissociated cells were resuspended in culture medium supplemented with 10% FBS, plated in 175-cm^2 flasks (Greiner Bio-one GmbH, Frickenhausen, Germany) and incubated at 37°C in a 5% CO2/95% O2 atmosphere.” left out, “For measurement of cell survival, caspase-3 activity and mitochondrial activity, cells were plated in hydrophilic surface 24-well plates at a density of 8×10^4 cells/ml.” left out, “After 5 days (DIV5), more than 99% of the cells were labeled with antibodies against glial fibrillary acidic protein [65].” left out
Cultured cells were incubated at 37°C with fresh serum-free culture medium in the absence or presence of H2O2 and/or ODN for 1 h. Cells were then incubated for 10 min at 37°C with 0.3 µg/ml calcein-AM (producing green fluorescence in living cells), rinsed twice with culture medium without probe and examined on an inverted microscope (Leica, Heidelberg, Germany) equipped with a double pass filter.
For quantification of surviving astrocytes, cells were incubated for 8 min with 15 µg/ml FDA-AM, rinsed twice with phosphate-buffered saline (PBS) and lysed with a Tris/HCl solution containing 1% sodium dodecyl sulfate (SDS). Fluorescence was measured with excitation at 485 nm and emission at 538 nm, using a microplate reader (Bio-Tek FLx 800).

ERK1 and ERK2 = assay: ERK phosphorylation, Western blot; assay type: cell-based, rat; conditions: ODN 0.1 nM, 1 h; flumazenil 1 µM, cyclo1-8[DLeu5]OP 1 µM, H89 20 µM, U0126 20 µM
Method: as §1
Cultured cells were incubated at 37°C for 1 h with fresh serum-free medium in the absence or presence of test substances. Total proteins were extracted with lysis buffer containing 1% Triton X-100, 50 mM Tris/HCl and 10 mM EDTA. After centrifugation (20,000 g, 4°C, 15 min), the proteins contained in the supernatant were precipitated by addition of ice-cold 10% TCA. The extract was centrifuged (15,000 g, 4°C, 15 min) and washed three times with alcohol/ether. The pellet was denatured (100°C, 5 min) in 50 mM Tris/HCl (pH 7.5) containing 20% glycerol, 0.7 M 2-mercaptoethanol, 0.004% bromophenol blue and 3% SDS, and then migrated on a 10% SDS-polyacrylamide gel electrophoresis (PAGE). After separation, proteins were electrically transferred onto nitrocellulose membrane (Amersham, Les Ulis, France). […] Signal was quantified using an image analysis system (Biocom, Les Ulis, France).

[1] = system: cAMP formation in astroglial cells (adenylyl cyclase); assay: cAMP production, radioimmunoassay; assay type: cell-based, rat; conditions: antagonist 1 µM, 30 min pre-incubation with 0.1 mM IBMX; ODN 0.1 nM, 10 min
Method: as §1, with “For measurement of cell survival, caspase-3 activity and mitochondrial activity, cells were plated in hydrophilic surface 24-well plates at a density of 8×10^4 cells/ml. The cells were incubated at 37°C in a humid atmosphere (5% CO2). After 5 days (DIV5), more than 99% of the cells were labeled with antibodies against glial fibrillary acidic protein [65]. All experiments were performed on 5- to 7-day-old secondary cultures.” left out
Cultured cells were pre-incubated for 30 min in serum-free medium containing 0.1 mM IBMX to inhibit phosphodiesterases, and then incubated in the same solution, in the presence or absence of test substances. […] The concentration of cAMP was measured by using a cAMP RIA kit. […]

[2] = system: glutathione (GSH) in cultured astrocytes; assay: Intracellular glutathione content, mBCl fluorescence; assay type: cell-based, rat; conditions: antagonist 1 µM, 30 min pre-incubation; ODN 0.1 nM, 1 h; flumazenil statement covers control and H2O2-treated cells
Method: as §1
Reduced GSH was measured by using the thiol-reactive probe mBCl. At the end of the treatment period, the culture medium was removed and the cells were incubated with the mBCl probe (40 µM) at 37°C for 30 min and then washed twice with PBS. Fluorescence intensity was measured with excitation at 360 nm and emission at 485 nm, using a microplate reader (Bio-Tek FLx 800).

[3] = 30 min pre-incubation, then 1 h 300 µM H2O2 with ODN 0.1 nM, FDA fluorescence

Compound	effect of inhibitor on the inhibitory action of ODN on H2O2-induced caspase-3 activity (caspase-3)	effect of pathway inhibitor on the protective action of ODN (cultured rat astrocytes; [3])	effect of antagonist or inhibitor on ODN-induced ERK phosphorylation (ERK1 and ERK2)	other results
O=S(=O)(NCCNC/C=C/c1ccc(Br)cc1)c1cccc2cnccc12 [H89]	abrogated the inhibitory effect of ODN on H2O2-induced caspase-3 activity	totally abrogated the protective action of ODN	suppressed	effect of inhibitor on dbcAMP-promoted astroglial cell survival (cultured rat astrocytes; 30 min pre-incubation): suppressed
N#CC(=C(/N)Sc1ccccc1N)/C(C#N)=C(/N)Sc1ccccc1N [U0126]	abrogated the inhibitory effect of ODN on H2O2-induced caspase-3 activity	totally abrogated the protective action of ODN	suppressed	effect of inhibitor on dbcAMP-promoted astroglial cell survival (cultured rat astrocytes; 30 min pre-incubation): suppressed
COc1ccc2c(c1)CC[C@@H]1[C@@H]2CC[C@]2(C)[C@@H](NCCCCCCN3C(=O)C=CC3=O)CC[C@@H]12 [U73122]	neither U73122 nor chelerythrine could suppress the effect of ODN	did not modify the protective effect of ODN	–	–
COc1ccc2c(c[n+](C)c3c4cc5c(cc4ccc23)OCO5)c1OC [chelerythrine]	neither U73122 nor chelerythrine could suppress the effect of ODN	did not modify the protective effect of ODN	–	–
O=C1CN=C(c2ccccc2Cl)c2cc([N+](=O)[O-])ccc2N1 [clonazepam]	–	–	–	protective effect of receptor ligand on H2O2-induced cell death (cultured rat astrocytes; FDA fluorescence): unable to block the effect of H2O2
CCCC(=O)Nc1ncnc2c1ncn2[C@@H]1O[C@@H]2COP(=O)(O)O[C@H]2[C@H]1OC(=O)CCC [dbcAMP, N^6,2′-O-dibutyryladenosine 3′,5′ cyclic monophosphate]	–	–	–	effect of cAMP analog on H2O2-evoked caspase-3 activation (caspase-3; dbcAMP 1 mM, 1 h 300 µM H2O2): mimicked the effect ODN on H2O2-evoked caspase-3 activation; protective effect of cAMP analog on H2O2-evoked cell death (cultured rat astrocytes; dbcAMP 1 mM, 1 h 300 µM H2O2, FDA fluorescence): mimicked the protective effect of ODN on H2O2-evoked cell death
CCOC(=O)c1ncn2c1CN(C)C(=O)c1cc(F)ccc1-2 [flumazenil]	–	–	did not affect ODN-induced ERK phosphorylation	effect of antagonist on ODN-stimulated cAMP formation [1]: did not affect the increase of cAMP induced by ODN; effect of antagonist on ODN-stimulated GSH formation [2]: did not impair the effect of ODN on glutathione production neither in control nor in H2O2-treated cells; effect of receptor antagonist on the glioprotective action of ODN (cultured rat astrocytes; antagonist 1 µM, 30 min pre-incubation, then 1 h 300 µM H2O2 with ODN 0.1 nM, FDA fluorescence): did not affect the protective effect of ODN
[Ala^15]ODN: inactive ODN analog (QATVGDVNTDRPGLADLK; Octadecaneuropeptide; UniProt P11030 34-51, looked up, variant L15A)	–	–	–	protective effect of receptor ligand on H2O2-induced cell death (cultured rat astrocytes; FDA fluorescence): devoid of protective activity
